From ChEMBL document CHEMBL3137667, “[Drug-induced liver injury; fourteenth updated edition of the bibliographic database of liver injuries and related drugs]” (Gastroenterol Clin Biol, 2004)

Columns and labels:
[1] = Times to onset, minimal and maximal, observed in the indexed observations. [column 'DELAI' in source]; details: human
[2] = human
[3] = human; remark: listed apart in the source
[4] = human; remark: listed apart in the source
[5] = human; remark: listed apart in the source
[6] = human; remark: listed apart in the source
[7] = human; remark: listed apart in the source
[8] = human; remark: listed apart in the source
[9] = human; remark: listed apart in the source
[10] = Highest frequency of acute liver toxicity observed during clinical trials, expressed as a percentage. [column '% AIGUE' in source]; details: human
[11] = human; remark: listed apart in the source
[12] = human, serum
[13] = human, serum; remark: listed apart in the source
[14] = Highest frequency of moderate liver toxicity observed during clinical trials, expressed as a percentage. [column '% BIOL' in source]; details: human
[15] = human, serum, 4383 h
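For Hepatotoxicity (association with vascular disease) in this document: count of indexed literature references reporting vascular liver injury in humans, e.g. peliosis hepatitis, hepatic veno-occlusive disease or Budd-Chiari syndrome.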
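For Hepatotoxicity (benign tumour) in this document: value is a count of indexed literature references citing a benign tumour confirmed by histopathology.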
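For Hepatotoxicity (choleostasis) in this document: human cholestatic liver injury, shown by histopathology or by peak ALT or AST elevation over alkaline phosphatase ratio below 2, value counts indexed literature reports.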
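For Hepatotoxicity (chronic liver disease) in this document: chronic liver injury confirmed by histopathology or persistently raised serum aminotransferase activity beyond 6 months, value given as the count of indexed literature references.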
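For Hepatotoxicity (cirrhosis) in this document: value is a count of indexed literature references reporting cirrhosis confirmed by histopathology.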
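For Hepatotoxicity (cytolytic) in this document: human cytolytic liver injury, shown by histopathology or by a ratio above 5 of peak ALT or AST elevation to alkaline phosphatase elevation, value counts indexed references.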
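For Hepatotoxicity (granulomatous hepatitis) in this document: value is a count of indexed literature references reporting granulomatous liver disease confirmed by histopathology.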
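For Hepatotoxicity (malignant tumour) in this document: malignant tumour confirmed by histopathology, value gives the count of indexed literature references reporting it.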
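For Hepatotoxicity (severe hepatitis) in this document: human clinical data: severe hepatitis, meaning potentially life-threatening liver failure or clinically observed cases, the value counts how many indexed literature references report it.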
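For Hepatotoxicity (steatosis) in this document: steatosis confirmed by histopathology, value is the count of indexed references.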

Compound	Hepatotoxicity (time to onset) [1]	Hepatotoxicity (choleostasis) [2]	Hepatotoxicity (cirrhosis) [3]	Hepatotoxicity (granulomatous hepatitis) [4]	Hepatotoxicity (steatosis) [5]	Hepatotoxicity (benign tumour) [6]	Hepatotoxicity (cytolytic) [7]	Hepatotoxicity (severe hepatitis) [8]	Hepatotoxicity (association with vascular disease) [9]	Hepatotoxicity (acute) [10] [%]	Hepatotoxicity (malignant tumour) [11]	Hepatotoxicity (acute) [12]	Hepatotoxicity (moderate) [13]	Hepatotoxicity (moderate) [14] [%]	Hepatotoxicity (chronic liver disease) [15]	Hepatotoxicity (severe hepatitis) ([8]; Liver)	Hepatotoxicity (acute) ([10]; Liver) [%]	Hepatotoxicity (moderate) ([14]; Liver) [%]
CCN(CCO)CCCC(C)Nc1ccnc2cc(Cl)ccc12 (stereo not given) [HYDROXYCHLOROQUINE]	1 year	1	0	0	0	0	1	1	0	5.3	0	2	1	11.1	0	–	–	–
CC(C)Cc1ccc(CC(=O)O)cc1 [IBUFENAC]	4 months	1	0	0	0	0	3	1	0	5	0	3	2	40	0	–	–	–
O=c1[nH]c(=O)n([C@H]2C[C@H](O)[C@@H](CO)O2)cc1I [IDOXURIDINE]	1 week - 2 weeks	1	0	0	0	0	0	0	0	0	0	1	3	3.6	0	–	–	–
CCN(CC)CCn1c(-c2ccccc2)noc1=N [IMOLAMINE]	2 months	0	0	0	0	0	0	0	0	0	0	0	0	0	1	–	–	–
CC1Cc2ccccc2N1NC(=O)c1ccc(Cl)c(S(N)(=O)=O)c1 (stereo not given) [INDAPAMIDE]	6 months - 5 years	1	0	0	0	0	3	–	0	–	0	4	1	–	0	1	0	0
C[C@H](O)C(=O)Nc1c(I)c(C(=O)NC(CO)CO)c(I)c(C(=O)NC(CO)CO)c1I [IOPAMIDOL]	0.5 h	0	0	0	0	0	1	1	0	0	0	1	0	0	0	–	–	–
CCC(Cc1c(I)cc(I)c(N)c1I)C(=O)O (stereo not given) [IOPANOIC ACID]	1 week	0	0	0	0	0	1	0	0	0	0	1	0	0	0	–	–	–
COCC(=O)Nc1c(I)c(C(=O)NCC(O)CO)c(I)c(C(=O)N(C)CC(O)CO)c1I (stereo not given) [IOPROMIDE]	< 24 h	0	0	0	0	0	1	0	0	0	0	1	0	0	0	–	–	–
